In ChEMBL document CHEMBL1155809, “Design, synthesis, and antihepatocellular carcinoma activity of nitric oxide releasing derivatives of oleanolic acid” (J Med Chem, 2008):
Active and inactive are the calls of the source. No cut-off for these calls is given here.

Tests used:
MCF7 [1] = test: Cytotoxicity against human MCF7 cells assessed as cell death by lactate dehydrogenase release assay; type: functional, cell-based
HEK293 [2] = test: Cytotoxicity against HEK293 cells assessed as cell death by lactate dehydrogenase release assay; type: functional, cell-based; details: Homo sapiens
Hep 3B2 = test: Cytotoxicity against human Hep3B cells assessed as levels of nitric oxide production at 100 uM after 30 to 300 mins by colorimetric assay; type: functional, cell-based
HeLa [3] = test: Cytotoxicity against human HeLa cells assessed as levels of nitric oxide production at 100 uM after 30 to 300 mins by colorimetric assay; type: functional, cell-based
PC-3 [4] = test: Cytotoxicity against human PC3 cells assessed as levels of nitric oxide production at 100 uM after 30 to 300 mins by colorimetric assay; type: functional, cell-based
MCF7 [5] = test: Cytotoxicity against human MCF7 cells assessed as levels of nitric oxide production at 100 uM after 30 to 300 mins by colorimetric assay; type: functional, cell-based
HEK293 [6] = test: Cytotoxicity against human HEK293 cells assessed as levels of nitric oxide production at 100 uM after 30 to 300 mins by colorimetric assay; type: functional, cell-based
HepG2 [7] = test: Cytotoxicity against human HepG2 cells assessed as levels of nitric oxide production at 100 uM after 30 to 300 mins by colorimetric assay; type: functional, cell-based
HepG2 [8] = test: Cytotoxicity against human HepG2 cells assessed as cell death at 1 uM after 24 hrs by lactate dehydrogenase release assay; type: functional
HepG2 [9] = test: Cytotoxicity against human HepG2 cells assessed as cell death at 0.1 uM after 24 hrs by lactate dehydrogenase release assay; type: functional
HepG2 [10] = test: Cytotoxicity against human HepG2 cells assessed as cell death at 0.01 uM after 24 hrs by lactate dehydrogenase release assay; type: functional
HepG2 [11] = test: Cytotoxicity against human HepG2 cells assessed as cell death at 0.001 uM after 24 hrs by lactate dehydrogenase release assay; type: functional
[12] = Cytotoxicity against human Hep3B cells assessed as cell death at 1 uM after 24 hrs by lactate dehydrogenase release assay; type: functional, Hep 3B2
[13] = Cytotoxicity against human Hep3B cells assessed as cell death at 0.1 uM after 24 hrs by lactate dehydrogenase release assay; type: functional, Hep 3B2
[14] = Cytotoxicity against human Hep3B cells assessed as cell death at 0.01 uM after 24 hrs by lactate dehydrogenase release assay; type: functional, Hep 3B2
[15] = Cytotoxicity against human Hep3B cells assessed as cell death at 0.001 uM after 24 hrs by lactate dehydrogenase release assay; type: functional, Hep 3B2
HeLa [16] = test: Cytotoxicity against human HeLa cells assessed as cell death by lactate dehydrogenase release assay; type: functional, cell-based
PC-3 [17] = test: Cytotoxicity against human PC3 cells assessed as cell death by lactate dehydrogenase release assay; type: functional, cell-based

Row | SMILES | Activity (MCF7 [1]) | Activity (HEK293 [2]) | Activity (Hep 3B2) | Activity (HeLa [3]) | Activity (PC-3 [4]) | Activity (MCF7 [5]) | Activity (HEK293 [6]) | Activity (HepG2 [7]) | Activity (HepG2 [8]) | Activity (HepG2 [9]) | Activity (HepG2 [10]) | Activity (HepG2 [11]) | Activity [12] | Activity [13] | Activity [14] | Activity [15] | Activity (HeLa [16]) | Activity (PC-3 [17])
1 | CC1(C)CC[C@]2(C(=O)O)CC[C@]3(C)C(=CC[C@@H]4[C@@]5(C)CC[C@H](OC(=O)CCC(=O)OCC#CCOc6no[n+]([O-])c6S(=O)(=O)c6ccccc6)C(C)(C)[C@@H]5CC[C@]43C)[C@@H]2C1 | inactive | inactive | Active | inactive | inactive | inactive | inactive | Active | 67.41% | 13.68% | 10.07% | 0% | 72.51% | 19.61% | 8.42% | 0% | inactive | inactive
2 | CC(CCOc1no[n+]([O-])c1S(=O)(=O)c1ccccc1)OC(=O)[C@]12CCC(C)(C)C[C@H]1C1=CC[C@@H]3[C@@]4(C)CC[C@H](OC(=O)C(F)(F)F)C(C)(C)[C@@H]4CC[C@@]3(C)[C@]1(C)CC2 (stereo not given in full) | inactive | inactive | Active | inactive | inactive | inactive | inactive | Active | 0% | 0% | 0% | 0% | 0% | 0% | 0% | 0% | inactive | inactive
3 | CC1(C)CC[C@]2(C(=O)O)CC[C@]3(C)C(=CC[C@@H]4[C@@]5(C)CC[C@H](OC(=O)CCC(=O)OCc6cccc(Oc7no[n+]([O-])c7S(=O)(=O)c7ccccc7)c6)C(C)(C)[C@@H]5CC[C@]43C)[C@@H]2C1 | inactive | inactive | Active | inactive | inactive | inactive | inactive | Active | 0% | 0% | 0% | 0% | 0% | 0% | 0% | 0% | inactive | inactive
4 | CC1(C)CC[C@]2(C(=O)O)CC[C@]3(C)C(=CC[C@@H]4[C@@]5(C)CC[C@H](OC(=O)CCC(=O)NCCOc6no[n+]([O-])c6S(=O)(=O)c6ccccc6)C(C)(C)[C@@H]5CC[C@]43C)[C@@H]2C1 | inactive | inactive | Active | inactive | inactive | inactive | inactive | Active | 74.53% | 13.01% | 8.51% | 0% | 66.21% | 16.34% | 5.26% | 0% | inactive | inactive
5 | CC1(C)CC[C@]2(C(=O)O)CC[C@]3(C)C(=CC[C@@H]4[C@@]5(C)CC[C@H](OC(=O)CCC(=O)OCCCCOc6no[n+]([O-])c6S(=O)(=O)c6ccccc6)C(C)(C)[C@@H]5CC[C@]43C)[C@@H]2C1 | inactive | inactive | Active | inactive | inactive | inactive | inactive | Active | 98.16% | 56.35% | 10.96% | 2.6% | 100% | 61.18% | 7.52% | 0% | inactive | inactive
